# Data: US20240009161A1, “[…] MATERIAL WITH LOW pH AND LOW TOXICITY ACTIVE AGAINST AT LEAST ONE PATHOGEN FOR ADDRESSING PATIENTS WITH RESPIRATORY […]” (priority 2020, published 2024)
# Several values for one entry are separate records, joined by “and”; a condition that tells them apart may be missing. Equal values may be shown once. Read-outs that look alike come from different tables or passages of the source.
# Columns and labels:
# [1] = test system: Streptococcus pneumoniae ATCC 6303; assay: ASTM E2315 suspension test, 1 minute; type: cell-based
# Method: (§1) In order to assess the antimicrobial efficacy of various acid compounds and combinations, a variety of potential pharmaceutically acceptable fluid formulations within the scope of the present disclosure were evaluated to determine antimicrobial efficacy against common viral, bacterial, and fungal pathogens. These studies were all performed by an ISO 17025 Accredited and GLP Compliant Laboratory. These in vitro tests followed ASTM (American Society of Testing and Materials) standard suspension tests for antimicrobial efficacy. The tests were all performed with a 1-minute contact time based on the pharmacokinetics previously described.
# Purpose: Streptococcus pneumoniae is a leading cause of bacterial pneumonia, meningitis, and sepsis, and is estimated to have caused approximately 335,000 (240,000-460,000) deaths in children aged <5 years in 2015 globally. Due to the prevalence and mortality of S. pneumoniae a wide range of acid formulations were tested against this common pathogen to determine what variables may affect efficacy. The purpose of the tests performed was to determine what pH is required to achieve 1 log (90%) efficacy in 1 minute against S. pneumoniae using various acid formulations.
# [2] = test system: Rhinovirus 37; assay: ASTM E1052 virus suspension test, 1 minute; type: cell-based; settings: 1.66 and 1.90 pH
# [3] = test system: Klebsiella pneumoniae ATCC 4532; assay: ASTM E2315 suspension test, 1 minute; type: cell-based; settings: 1.99 pH
# [4] = test system: Influenza A (H1N1) A/PR/8/34 Strain; type: cell-based, Influenza A virus
# [5] = test system: Rhizopus microspores ATCC 52807; assay: ASTM E2315 suspension test, 1 minute; type: cell-based; settings: 1.9 pH
# [6] = test system: Mycobacterium terrae ATCC 15755; type: cell-based
# [7] = test system: Haemophilus influenza ATCC 8149; assay: ASTM E2315 suspension test, 1 minute; type: cell-based; settings: 1.99 pH
# Method: as §1
# Three other bacteria and three fungi were selected that represent a wide variety of respiratory pathogens.
# [8] = test system: L929 mouse cell line; settings: for Cytotoxicity Grade: mouse
# [9] = test system: Pseudomonas aeruginosa ATCC BAA-2801; assay: ASTM E2315 suspension test, 1 minute; type: cell-based
# Method: as §1
# (§2) Purpose: The first set of in vitro efficacy tests were performed on antibiotic resistant Staphylococcus aureus and Pseudomonas aeruginosa bacteria. These two antibiotic resistant bacterial strains were initially selected since these pathogens represent two broad classes of bacteria. S. aureus is gram-positive and P. aeruginosa is gram-negative. Antibiotic resistant strains of each pathogen are considered some of the deadliest respiratory bacterial strains with limited therapeutic options.
# (§3) The as-received pH measurements were of the test materials as received by the test laboratory. The ASTM antimicrobial test procedures mix 9 parts test material with 1 part medium containing the pathogen. The as-applied pH is the pH after mixing, which is what is seen by the pathogen. After the test duration, 1 minute for these tests, the test material is neutralized, and the pathogens are counted and compared with the control.
# [10] = test system: Human Coronavirus, 229E strain, ATCC VR-740; assay: ASTM E1052 virus suspension test, 1 minute; type: cell-based
# Method: A 1-minute suspension test is considered to be the most representative in vitro test to simulate in vivo efficacy based on previously discussed pharmacokinetics. A 1 log or 90% efficacy target has been chosen with consideration of patient recovery, while minimizing the effective concentration and potential patient risk. In one contemplated method of administration as described in the present disclosure, the material is administered to the patient in need thereof by inhalation by nebulizer. It is contemplated that patients using an inhalation method such as nebulizer administration would be inhaling the therapeutic material comprising a pharmaceutically acceptable fluid as disclosed herein continuously for several minutes in a specific concentration either continuously or in a series of discrete dose intervals with potentially multiple times per day potentially over multiple days. As a result, any reduction in pathogen load in vitro may be compounded in vivo to achieve higher efficacy over the treatment period.
# as §1
# Purpose: COVID-19 is a global pandemic caused by the SARS-CoV-2 coronavirus. The purpose of these studies was to determine the efficacy of several inorganic acids against the human coronavirus and ascertain the pH required to achieve 1 log efficacy in 1 minute.
# SARS-CoV-2 is a beta coronavirus. An alpha coronavirus was used in these studies since this was the closest virus available at the test laboratory. The alpha coronavirus is considered to be representative for efficacy on SARS-CoV-2 for purposes of this investigation.
# Due to the larger increase in pH, none of the acids achieved the 1 log efficacy goal.
# The EMEM includes live MRC-5 cells which have significant buffer capacity.
# [11] = test system: Aspergillus fumigatus ATCC 36607; assay: ASTM E2315 suspension test, 1 minute; type: cell-based; settings: 1.9 pH
# [12] = test system: Staphylococcus aureus ATCC (MRSA) 33591; assay: ASTM E2315 suspension test, 1 minute; type: cell-based; settings: pH 3.1, one minute
# Method: as §1, §2, §3
# [13] = test system: SARS-CoV-2 virus; settings: hard surfaces, 1 minute, 4% concentration, 2.68 pH; cited from earlier work
compound,measurement,setting,value
Polyphosphoric acid,Effective pH to meet the 1 log efficacy target,[1],approximately 1.85 pH
"O=S(=O)(O)O [sulfuric acid, Sulfuric acid]",Log efficacy,[2],> 2 log
same,Effectiveness,[3],highly effective
same,Log efficacy,[4],> 4 log
same,Effectiveness,[5],effective
same,Efficacy %,[6],25% and 24.56%
same,Efficacy log,[6],0.12 log
same,Effectiveness,[7],highly effective
same,Test Results,[8],No biological reactivity
same,Cytotoxicity Grade,[8]; 0.12 %,Grade 0
same,Cytotoxicity Grade,[8]; 0.18 %,Grade 0
same,Cytotoxicity Grade,[8]; 0.3 %,Grade 0
same,Cytotoxicity Grade,[8]; […],Grade 0
same,Effectiveness,"[9]; 1.9 pH, antibiotic resistant strain",effective
same,Efficacy %,[10],82.11%
same,Efficacy at inactivating human coronavirus,[10],provides efficacy at inactivating and/or reducing concentration of human coronavirus
same,Efficacy log,[10],0.75 log
same,In vitro efficacy on human coronavirus,[10],demonstrated in vitro efficacy on human coronavirus
same,"In vitro suspension efficacy, %",[10],82.11%
same,"In vitro suspension efficacy, log",[10],0.75 log
same,Effectiveness,[11],effective
same,Effective pH to meet the 1 log efficacy target,[1],1.91 pH
same,Effectiveness,[1]; 1.9 pH,effective
"Br [hydrobromic acid, Hydrobromic acid]",Effective pH to meet the 1 log efficacy target,[1],1.90 pH
"Cl [hydrochloric acid, Hydrochloric acid]",Effective pH to meet the 1 log efficacy target,[1],approximately 1.87 pH
same,Efficacy,[1]; 1.98 pH,no little efficacy
Albuterol sulfate [reference compound],Effectiveness vs 1 log target,[9]; 3.1 pH,no efficacy
same,Efficacy as 1 log decrease in pathogen count,[12],no efficacy
"CC(=O)O [acetic acid, Acetic acid]",Log efficacy,[13],4 log
